Test results published in PubChem BioAssay (NCI).
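Exposure lasted 48 hours, with cells grown in 96-well plates and compounds tested at five concentrations. TGI: concentration producing complete growth inhibition.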

What was measured:
Assay in all cases: growth of human tumour cells (NCI), 48 h
KM12 colon = tested on: KM12 colon
PC-3 prostate = tested on: PC-3 prostate
MDA-N = tested on: MDA-N
SK-MEL-2 melanoma = tested on: SK-MEL-2 melanoma
IGROV1 ovarian = tested on: IGROV1 ovarian
NCI-H522 lung = tested on: NCI-H522 lung
LOX IMVI melanoma = tested on: LOX IMVI melanoma
UACC-62 melanoma = tested on: UACC-62 melanoma
DU-145 prostate = tested on: DU-145 prostate
SNB-75 CNS = tested on: SNB-75 CNS
SK-MEL-28 melanoma = tested on: SK-MEL-28 melanoma
OVCAR-5 ovarian = tested on: OVCAR-5 ovarian
RXF 393 renal = tested on: RXF 393 renal
K-562 leukemia = tested on: K-562 leukemia
RPMI-8226 leukemia = tested on: RPMI-8226 leukemia
HCT-116 colon = tested on: HCT-116 colon
SK-OV-3 ovarian = tested on: SK-OV-3 ovarian
HCT-15 colon = tested on: HCT-15 colon
SNB-19 CNS = tested on: SNB-19 CNS
MDA-MB-435 = tested on: MDA-MB-435
786-0 renal = tested on: 786-0 renal
MOLT-4 leukemia = tested on: MOLT-4 leukemia
SN12C renal = tested on: SN12C renal
A549 NSCLC = tested on: A549 NSCLC
COLO 205 colon = tested on: COLO 205 colon
OVCAR-3 ovarian = tested on: OVCAR-3 ovarian
MDA-MB-231 breast = tested on: MDA-MB-231 breast
SW-620 colon = tested on: SW-620 colon
T-47D breast = tested on: T-47D breast
TK-10 renal = tested on: TK-10 renal
OVCAR-4 ovarian = tested on: OVCAR-4 ovarian
HS 578T breast = tested on: HS 578T breast
SF-295 CNS = tested on: SF-295 CNS
SR leukemia = tested on: SR leukemia
HOP-62 NSCLC = tested on: HOP-62 NSCLC
UACC-257 melanoma = tested on: UACC-257 melanoma
BT-549 breast = tested on: BT-549 breast
SK-MEL-5 melanoma = tested on: SK-MEL-5 melanoma
HOP-92 NSCLC = tested on: HOP-92 NSCLC
U251 CNS = tested on: U251 CNS
EKVX NSCLC = tested on: EKVX NSCLC
NCI-H460 lung = tested on: NCI-H460 lung
MCF7 breast = tested on: MCF7 breast
HL-60(TB) leukemia = tested on: HL-60(TB) leukemia
A498 renal = tested on: A498 renal
SF-539 CNS = tested on: SF-539 CNS
NCI-H226 lung = tested on: NCI-H226 lung
CCRF-CEM leukemia = tested on: CCRF-CEM leukemia
UO-31 renal = tested on: UO-31 renal
OVCAR-8 ovarian = tested on: OVCAR-8 ovarian
M14 melanoma = tested on: M14 melanoma
HCC-2998 colon = tested on: HCC-2998 colon
CAKI-1 renal = tested on: CAKI-1 renal
NCI/ADR-RES ovarian = tested on: NCI/ADR-RES ovarian
HT29 colon = tested on: HT29 colon
MALME-3M melanoma = tested on: MALME-3M melanoma
ACHN renal = tested on: ACHN renal
NCI-H23 lung = tested on: NCI-H23 lung
SF-268 CNS = tested on: SF-268 CNS

Measured: TGI

COC(=O)/C(C#N)=C(\N)c1c(C)c2ccccc2oc1=N
not listed: NCI-H226 lung | CCRF-CEM leukemia | UO-31 renal | OVCAR-8 ovarian | M14 melanoma | HCC-2998 colon | CAKI-1 renal | NCI/ADR-RES ovarian | HT29 colon | MALME-3M melanoma | ACHN renal | NCI-H23 lung | SF-268 CNS
> 100 µM: all other assays above

N#Cc1c(O)c2ccccc2[nH]c1=O
not listed: HS 578T breast | SR leukemia | BT-549 breast | NCI-H460 lung | SF-268 CNS
> 100 µM: all other assays above

CNC(=O)NS(=O)(=O)c1ccc(C)cc1
not listed: MDA-MB-435 | OVCAR-3 ovarian | SR leukemia | EKVX NSCLC | A498 renal | NCI-H226 lung | HCC-2998 colon | CAKI-1 renal
> 100 µM: all other assays above

CCCCc1ccc(C#CC#Cc2ccc(CCCC)s2)s1
not listed: PC-3 prostate | SK-MEL-2 melanoma | LOX IMVI melanoma | SK-MEL-28 melanoma | K-562 leukemia | SNB-19 CNS | A549 NSCLC | BT-549 breast | MALME-3M melanoma
> 100 µM: all other assays above
